From BigSolDB 2.1

Cc1cccc(C(=O)O)c1N
solubility (mole fraction)
Details	278.15 K	283.15 K	288.15 K	293.15 K	298.15 K	303.15 K	308.15 K	313.15 K	318.15 K
in 1,4-dioxane	–	–	0.108	0.117	0.127	0.137	0.148	0.159	0.171
in 2-butanone	0.0646	0.0721	0.0792	0.0872	0.0953	0.104	0.114	0.124	0.134
in acetone	0.0745	0.0829	0.0918	0.101	0.111	0.121	0.132	0.143	0.154
in acetonitrile	0.0227	0.0275	0.0329	0.039	0.0461	0.054	0.0628	0.0727	0.0834
in cyclohexane	–	8.89e-05	0.000115	0.000153	0.000204	0.00027	0.00035	0.000454	0.000578
in ethanol	0.0176	0.0208	0.0244	0.0286	0.0333	0.0385	0.0444	0.0509	0.0582
in ethyl acetate	0.0294	0.0345	0.0405	0.0469	0.054	0.0619	0.0704	0.0803	0.0907
in isopropanol	0.00876	0.0109	0.0138	0.017	0.0208	0.0253	0.0303	0.036	0.0427
in methanol	0.02	0.0235	0.0273	0.0317	0.0367	0.0423	0.0483	0.055	0.0624
in n-butanol	0.0117	0.0144	0.0176	0.0212	0.0254	0.0302	0.0357	0.0422	0.0498
in n-propanol	0.0151	0.0178	0.0212	0.0251	0.0293	0.0344	0.04	0.046	0.0532
in toluene	0.0011	0.00145	0.00184	0.00235	0.00298	0.00382	0.0049	0.00619	0.00797
